Experiments:
[1] = biological target: T1, FOXO3 (Homo sapiens, UniProt O43524); assay: Cellular Thermal Shift Assay (CETSA) in K562 cells, FOXO3; format: binding; conditions: 1 μM
T1 construct: performed against the FOXO isoforms expressed in K562 cells; endogenous in cells; host or cells: K562
Description: K562 cells (ATCC) were maintained in appropriate volume of RPMI medium supplemented with 10% fetal bovine serum (Serum Plus—II, Sigma MO, USA), 100 units/mL penicillin and 100 […] (Corning, VA, USA). Short-term passages (<15) were used for all experiments. For CETSA, K562 cell were freshly seeded the day before the experiment. The day of experiment, equal numbers of cells were counted by Moxi Mini automated cell counter (Orflo) and 0.6×10^6 cells per data point were seeded in T-25 cell culture flasks (VWR, PA, USA) in appropriate volume of culture medium. Cells were exposed to […] AS1842856 or equal volume DMSO for 3 hours in an incubator with 5% CO2 and 37° C. […] The supernatants were transferred to new microcentrifuge tubes and analyzed by SDS-PAGE followed by immunoblotting analysis. […] Immunoblotting results were subjected to densitometric analysis (Image J) and melting temperatures of FOXO1, FOXO3 and FOXO4 were determined by Prism 7 (GraphPad) using nonlinear least-squares regression fit to Y=100/(1+10^(Log IC50−X)*H), where H=Hill slope (variable). The viability of the cells was assessed in triplicate by trypan blue exclusion. […]
Briefly, K562 cells were treated with increasing concentrations of the FOXO1 inhibitor AS1842856 just after HIVGKO infection. After 3-4 days, the percentage of latent cells and productive cells were quantified by FACS. […]

[2] = system: latent HIV-1 provirus in J-Lat cells; assay: HIV-GFP reactivation in J-Lat cell lines (RT-qPCR, FACS); format: cell-based
Description: Total RNA from samples was extracted using the Direct-zol RNA kit (R2060; Zymogen). cDNA was generated using 500 ng for CD4^+ T cells or 1000 ng of total RNA for J-Lats with Superscript III Reverse transcription (18080-044; ThermoFisher) and oligo(dT) (18418-012; ThermoFisher). Quantitative RT-PCR was carried out using Maxima SYBR Green qPCR Master Mix (Thermo Scientific) on SDS 2.4 software (Applied Biosystems) in a total volume of 12 μL. The SYBR green qPCR reactions contained 5 μl of 2× Maxima SYBR green/Rox qPCR Master Mix (K0221; ThermoFisher), 5 μl of diluted cDNA, and 1 nmol of both forward and reverse primers. The reactions were run using the following conditions: 50° C. for 2 min and 95° C. for 10 min, followed by 40 cycles of 95° C. for 5 s and 62° C. for 30 s. See Table 1 below for a qRT-PCR primer list. […] Dissociation curve analysis was performed after the end of the PCR to confirm the presence of a single and specific product. All qPCRs were independently repeated at least three times, averaged and compared using standard deviation (±SD).
The J-Lat clonal cell lines are Jurkat cells that contain a stably integrated, latent HIV-1 (HXB) Δenv provirus with a GFP reporter gene in place of the nef gene (Jordan, A. et al. EMBO J. 22, 1868-1877 (2003)). In this system, reactivation from established latency can be monitored through GFP expression.
HIV-GFP mRNA reactivation was assessed by RT-qPCR and normalized to RPL13A mRNA. Data represent average SD of three independent experiments. p-value relative to the control at each time point. FIG. 3, Panel B, depicts cell viability assessed by flow cytometry at 72 h of the same experiment as in A. Cell viability was measured by gating on both the live population at the forward scatter (FSC) and side scatter (SSC) plot and then the viable cells after staining with the viability dye. […] HIV-GFP reactivation (bars) and cell viability (dots) were analyzed by FACS. HIV-GFP reactivation is reported as a percentage of GFP-expressing cells (% GFP+ cells). Data represent average f SD of at least three independent experiments. FIG. 3, Panel D, depicts the same experiments as in FIG. 3, Panel C, but performed in different J-Lat cell lines 5A8, 6.3, 11.1 and 15.4. Data represent average f SD of at least three independent experiments. 10 ng/mL TNFα was used as control. […] Calculation of synergy for drug combinations using the Bliss independence model applied to the HIV-GFP reactivation measured as a percentage of GFP-expressing cells (% GFP+ cells).
Chromatin was prepared from J-Lat A2 and 5A8 cells, in which the LTR was stimulated by 1000 nM AS1842856 treatment, TNFα or which were left untreated/DMSO. […] HIV-GFP reactivation was analyzed by FACS and relativized to the control condition. […] Data represent average SD of 3-6 independent experiments. […] HIV-GFP reactivation was analyzed by FACS. […] HIV-GFP reactivation and cell viability were analyzed by FACS. Data were mean±SD of three independent experiments.

T1 sequence (O43524 whole entry, canonical isoform): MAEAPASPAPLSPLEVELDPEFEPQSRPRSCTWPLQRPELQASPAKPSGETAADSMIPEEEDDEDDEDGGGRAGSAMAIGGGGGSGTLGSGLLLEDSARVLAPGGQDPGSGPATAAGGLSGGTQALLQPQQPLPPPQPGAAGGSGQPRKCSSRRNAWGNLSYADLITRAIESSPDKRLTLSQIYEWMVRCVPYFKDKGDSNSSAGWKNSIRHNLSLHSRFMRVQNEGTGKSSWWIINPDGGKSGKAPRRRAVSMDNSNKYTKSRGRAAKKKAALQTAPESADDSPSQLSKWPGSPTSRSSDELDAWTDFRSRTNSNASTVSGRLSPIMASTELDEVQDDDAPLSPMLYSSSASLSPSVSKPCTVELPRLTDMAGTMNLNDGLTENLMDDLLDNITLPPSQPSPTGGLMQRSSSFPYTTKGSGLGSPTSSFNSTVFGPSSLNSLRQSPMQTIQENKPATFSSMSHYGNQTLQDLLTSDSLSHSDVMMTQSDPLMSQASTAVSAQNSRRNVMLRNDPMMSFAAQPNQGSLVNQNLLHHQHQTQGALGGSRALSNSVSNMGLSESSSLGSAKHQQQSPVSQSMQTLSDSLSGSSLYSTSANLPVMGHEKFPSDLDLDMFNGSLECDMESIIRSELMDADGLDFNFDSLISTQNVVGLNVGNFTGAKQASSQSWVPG

CCn1cc(C(=O)O)c(=O)c2c(N)c(F)c(NC3CCCCC3)cc21 [AS1842856, 5-amino-7-(cyclohexylamino)-1-ethyl-6-fluoro-4-oxo-1,4-dihydro-quinoline-3-carboxylic acid]
change in FOXO3 melting curve [1]: no changes
HIV-driven GFP expression (flow cytometry) ([2]; J-Lat A2 cells (contain Tat)): increased GFP expression
HIV-driven GFP expression (flow cytometry) ([2]; J-Lat A72 cells (no Tat)): increased GFP expression
HIV reactivation (percentage of GFP+ cells, median fluorescence intensity) ([2]; four J-Lat clonal cell lines, 72 hours): reactivated HIV in each cell line
